According to US20140221301A1, “COMBINATION TREATMENT FOR CANCER” (priority 2011, published 2014):

What was measured:
[1] = tested on: TEX cells; assay: ROS generation (DCF-DA, DHE) in TEX cells; type: cell-based, human; conditions: time-points up to 24 hours
Method: FIG. 4. […] (A) Cells from TEX, OCI-AML2 and two primary AML patients were treated with increasing concentrations (2.5 μM and 5 μM) of tigecycline for 36 and 48 hours of tigecycline. Total proteins were extracted and analyzed by western blotting for Cox-1, Cox-2, Cox-4, grp78, XIAP, actin and tubulin. (B) TEX and AML patient cells were treated with increasing concentrations (2.5 μM and 5 μM) of tigecycline. Cox-1, Cox-2, and Cox-4 mRNA expression relative 18S was determined by quantitative RT-PCR. Data is shown as mean±SD. (C) TEX cells were treated with increasing concentrations of tigecycline and chloramphenicol (CAP) for 72 hours. Complex I, II and IV enzyme activity relative to citrate synthase activity was determined as described in materials and methods. (D) Cells from TEX, primary AML patients, and normal donors were treated with increasing concentrations of tigecycline. Mitochondrial membrane potential (ΔΨ) was determined by staining cells with JC-1 dye, and flow cytometry analysis (Red/Green ratio). Reactive oxygen species generation (ROS) was determined by staining with h2-DCFDA and Dihydroethidium (DHE).
A byproduct of the mitochondrial enzyme activities of the electron transport chain is the generation of reactive oxygen species (ROS). […] Therefore, the role of tigecycline on ROS generation in leukemia cells by analyzing hydrogen peroxide ions (H2O2) using a dichlorofluorescein dye (DCF-DA), and superoxide anions using dihydroethidium (DHE) was examined.

[2] = tested on: acute myeloid leukemia (AML); conditions: 13 patients treated; cited from earlier work

Compound	ROS generation [1]	complete remission [2]	partial remissions [2]
CC[C@H]1/C=C/C=C/C[C@@H](C)[C@H](O)[C@@](C)(O)C(=O)[C@@H](C)[C@H](O)[C@@H](C)C(=O)[C@@H](C)[C@H](O)[C@@H](C)/C=C/C(=O)O[C@@H]2[C@H](C)[C@H](CC1)O[C@]1(CC[C@H](C)[C@H](C[C@@H](C)O)O1)[C@H]2C [oligomycin]	rapid increases	–	–
NC(=O)c1ncn([C@@H]2O[C@H](CO)[C@@H](O)[C@H]2O)n1 [ribavirin]	–	1	2
C=C(C)[C@H]1Cc2c(ccc3c2O[C@@H]2COc4cc(OC)c(OC)cc4[C@@H]2C3=O)O1 [rotenone]	rapid increases	–	–
antimycin	rapid increases	–	–
